In patent publication US3977944A, “Enzyme-kinetic determination of the concentration of a substrate” (Eppendorf Geratebau Netheler & Hinz GmbH, priority 1973, dated 1976):

Key:
GlucDH = GlucDH (Priestia megaterium, UniProt P07999); assay: Kinetic glucose determination with GlucDH, average inhibition (Table 3); type: biochemical
Text: (§1) The exclusion of the interference of foreign inhibitors that can be achieved by the invention is illustrated by the measurements obtained for two different enzymes and two different inhibitors each, which are listed in the following two tables.

glucose dehydrogenase [1] = molecular target: T1, glucose dehydrogenase (Priestia megaterium, UniProt P07999); assay: Kinetic glucose determination with glucose-dehydrogenase, Example 4 (1.8 U enzyme); type: biochemical
T1 sequence (P07999 whole entry): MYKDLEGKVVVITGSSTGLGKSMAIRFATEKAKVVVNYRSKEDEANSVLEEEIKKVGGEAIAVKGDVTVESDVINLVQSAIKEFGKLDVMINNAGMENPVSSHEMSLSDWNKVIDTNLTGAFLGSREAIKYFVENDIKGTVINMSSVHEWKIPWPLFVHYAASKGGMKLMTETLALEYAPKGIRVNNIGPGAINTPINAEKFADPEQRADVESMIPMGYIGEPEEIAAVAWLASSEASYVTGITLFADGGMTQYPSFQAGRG
Text: (§2) The following test mixture was used:
0.12 mole phosphate buffer pH = 7.6
40 millimoles sulfosalicylic acid
0.86 millimole - 2.59 millimoles glucose
1.8 U glucose-dehydrogenase

glucose dehydrogenase [2] = molecular target: T1, glucose dehydrogenase; assay: Kinetic glucose determination with glucose-dehydrogenase, Example 5 (95 mU enzyme); type: biochemical
Text: as §2
90 mmoles phosphate buffer pH = 7.6
40 mmoles sulfosalicylic acid
95 mU glucose dehydrogenase

uricase [3] = molecular target: T2, uricase (Sus scrofa, UniProt P16164); assay: Kinetic uric acid determination with uricase, average inhibition (Table 4); type: biochemical
T2 sequence (P16164 2-304 limits assumed): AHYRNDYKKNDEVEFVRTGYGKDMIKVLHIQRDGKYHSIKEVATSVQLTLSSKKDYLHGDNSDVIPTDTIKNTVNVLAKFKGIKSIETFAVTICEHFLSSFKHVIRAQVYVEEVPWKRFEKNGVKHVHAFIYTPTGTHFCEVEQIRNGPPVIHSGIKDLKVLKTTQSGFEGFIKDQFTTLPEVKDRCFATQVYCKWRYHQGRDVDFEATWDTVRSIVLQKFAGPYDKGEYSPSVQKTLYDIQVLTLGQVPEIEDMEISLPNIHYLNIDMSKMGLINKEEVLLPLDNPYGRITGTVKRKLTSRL
Text: as §1

uricase [4] = molecular target: T2, uricase; assay: Inhibition of Uricase, Example 6; type: biochemical
Text: as §2
96 mmoles borate buffer pH = 9.5
114 - 7.6 μmoles uric acid

[5] = molecular target: uricase (prepared from swine liver) (Sus scrofa, UniProt P16164)
Protocol: Recording is started 20 seconds after initiation of the reaction: paper speed 2 cm/min, spread 20 cm for E=0-1. With an angle measuring means, the angle α formed with the time axis is measured at the beginning of each recording. The reciprocals of tan α are plotted as ordinates against the corresponding reciprocal uric acid concentrations (Lineweaver-Burk diagram). The calibration straight line is drawn through the points obtained with and without the addition of potassium thiocyanate.
For the determination of the apparent Michaelis constant, the reciprocals of the tangent α are plotted as ordinates, and the reciprocal molar substrate concentrations in the test mixture as abscissae. The apparent Michaelis constant is found as a negative reciprocal of the abscissae intersections of the straight lines of regression (insertion of suitable small values for 1/cS followed by graphic evaluation).

glucose dehydrogenase [6] = molecular target: T1, glucose dehydrogenase; settings: Lineweaver-Burk diagram, FIG. 1; 330 and 500 mmoles KSCN per liter of test solution
Protocol: The reaction was started by the admixture of 20 μl of 200 mmoles/l NAD^+, and recording was begun 10 seconds later: paper feed 5 cm/min, spread 20 cm for E = 0 - 1.
For the determination of the angle α with the axis of time the virtually linear initial area of the recording was evaluated; for the determination of the type of inhibitor, the reciprocals of tangent α (identical with the initial rate, for practical purposes) were plotted as ordinates and the reciprocals of the millimolar glucose concentrations used in the test were plotted as abscissae (Lineweaver-Burk diagram).
20 μl of specimen was incubated in the cell at 25°C with 500 μl of stabilized buffer-enzyme-inhibitor mixture and the reaction was started by the admixture of 20 μl NAD^+ (150 mg/ml H2 O). 20 seconds after the start of the reaction, recording was performed at a paper feed of 5 cm/min at Hg 366 nm, and the layer thickness 1.00 cm, and the angle α was determined 20 seconds after the start of the reaction in each case.

[7] = molecular target: uricase obtained from swine liver (Sus scrofa, UniProt P16164); settings: read-out: Michaelis constant of uricase, Tiffany et al., Anal. Chem. 45, 1716-23 (1973); cited from earlier work
[8] = 0.31 mole KSCN, glucose [S] 0.86 mmoles
[9] = 0.31 mole KSCN, glucose [S] 1.29 mmoles
[10] = 0.31 mole KSCN, glucose [S] 1.72 mmoles
[11] = 0.31 mole KSCN, glucose [S] 2.59 mmoles
[12] = 38.5 mmoles KSCN, glucose [S] 0.86 mmoles
[13] = 38.5 mmoles KSCN, glucose [S] 1.29 mmoles
[14] = 38.5 mmoles KSCN, glucose [S] 1.72 mmoles
[15] = 38.5 mmoles KSCN, glucose [S] 2.59 mmoles
[16] = 38.5 mmoles KSCN, glucose [S] 3.45 mmoles
[17] = 1.4 nmoles phloretin, glucose [S] 0.86 mmoles
[18] = 1.4 nmoles phloretin, glucose [S] 1.29 mmoles
[19] = 1.4 nmoles phloretin, glucose [S] 1.72 mmoles
[20] = 1.4 nmoles phloretin, glucose [S] 2.59 mmoles
[21] = 14 nmoles phloretin, glucose [S] 0.86 mmoles
[22] = 14 nmoles phloretin, glucose [S] 1.29 mmoles
[23] = 14 nmoles phloretin, glucose [S] 1.72 mmoles
[24] = 14 nmoles phloretin, glucose [S] 2.59 mmoles
[25] = 14 nmoles phloretin, glucose [S] 3.45 mmoles
[26] = 0.02 mmole xanthine, [S] 7.6 μmole
[27] = 0.02 mmole xanthine, [S] 38 μmole
[28] = 0.02 mmole xanthine, [S] 114 μmole

Chain of GlucDH (P07999 whole entry): as the sequence (P07999 whole entry) above

## N#CS [KSCN, Potassium thiocyanate]
GlucDH; KSCN 38.5 millimoles
  Average inhibition in %: 17%
GlucDH; KSCN 310 millimoles
  Average inhibition in %: 78%
Glucose dehydrogenase [1]; [8]
  % inh.: 85.5%
  ΔE/min: 4.5
Glucose dehydrogenase [1]; [9]
  % inh.: 80.3%
  ΔE/min: 8.0
Glucose dehydrogenase [1]; [10]
  % inh.: 80.6%
  ΔE/min: 10.5
Glucose dehydrogenase [1]; [11]
  % inh.: 77.5%
  ΔE/min: 17
Glucose dehydrogenase [2]; [12]
  % inh.: 17%
  ΔE/min: 28.0
Glucose dehydrogenase [2]; [13]
  % inh.: 18.8%
  ΔE/min: 40.3
Glucose dehydrogenase [2]; [14]
  % inh.: 21.69%
  ΔE/min: 49.7
Glucose dehydrogenase [2]; [15]
  % inh.: 8%
  ΔE/min: 72.3
Glucose dehydrogenase [2]; [16]
  % inh.: 17%
  ΔE/min: 90
Uricase [3]; KSCN 10 millimoles
  Average inhibition in %: 17%
Uricase [3]; KSCN 40 millimoles
  Average inhibition in %: 41%
Uricase [3]; KSCN 500 millimoles
  Average inhibition in %: 82%
Uricase [4]; 0.5 mole KSCN, [S] 7.6 μmole
  % inh.: 86%
  ΔE/min: 3.3
Uricase [4]; 0.5 mole KSCN, [S] 38 μmole
  % inh.: 81%
  ΔE/min: 16.3
Uricase [4]; 0.5 mole KSCN, [S] 114 μmole
  % inh.: 73%
  ΔE/min: 46
[5]; 687 mmoles per liter of test solution, uric acid as substrate, 25°C
  apparent Michaelis constant: 1 mmol/L
[5]; Lineweaver-Burk plot, same ordinate intersection
  type of inhibitor: competitive inhibitor
Glucose dehydrogenase [6]
  type of inhibitor: competitive type of inhibitor

## O=C(CCc1ccc(O)cc1)c1c(O)cc(O)cc1O [Phloretin, phloretin]
GlucDH; Phloretin 1.4 micromoles
  Average inhibition in %: 20%
GlucDH; Phloretin 14 micromoles
  Average inhibition in %: 76%
Glucose dehydrogenase [1]; [17]
  % inh.: 22.8%
  ΔE/min: 24.0
Glucose dehydrogenase [1]; [18]
  % inh.: 26.0%
  ΔE/min: 30.0
Glucose dehydrogenase [1]; [19]
  % inh.: 15.8%
  ΔE/min: 45.5
Glucose dehydrogenase [1]; [20]
  % inh.: 17.1%
  ΔE/min: 62.5
Glucose dehydrogenase [2]; [21]
  % inh.: 74%
  ΔE/min: 8.7
Glucose dehydrogenase [2]; [22]
  % inh.: 77%
  ΔE/min: 11.3
Glucose dehydrogenase [2]; [23]
  % inh.: 78%
  ΔE/min: 14.0
Glucose dehydrogenase [2]; [24]
  % inh.: 76%
  ΔE/min: 20.3
Glucose dehydrogenase [2]; [25]
  % inh.: 75%
  ΔE/min: 26.7

## O=c1[nH]c(=O)c2[nH]cnc2[nH]1 [Xanthine, xanthine]
Uricase [3]; Xanthine 20 micromoles
  Average inhibition in %: 34%
Uricase [3]; Xanthine 40 micromoles
  Average inhibition in %: 60%
Uricase [3]; Xanthine 80 micromoles
  Average inhibition in %: 76%
Uricase [4]; [26]
  % inh.: 49%
  ΔE/min: 14
Uricase [4]; [27]
  % inh.: 25%
  ΔE/min: 66
Uricase [4]; [28]
  % inh.: 26%
  ΔE/min: 127

## O=c1[nH]c(=O)c2[nH]c(=O)[nH]c2[nH]1 [uric acid]
[7]
  Km: 17 µM
